Values quoted from earlier work as cited in PubChem BioAssay AID1259409 (Chemical Carcinogenesis Research Information System (CCRIS), 2018).

Test system: rodent chemically induced tumor inhibition, incidence and multiplicity
Assay: CCRIS tumor inhibitor studies
Conditions: Promoter: NONE USED

SMILES	tumour outcome (control, treated, inhibition, significance) (Carcinogen: L-AZASERINE, 115-02-6, Dose [Inhibitor]: 1 MMOL/KG DIET DAILY FOR 84 D FOLLOWED BY 0.5 MMOL/KG DIET FOR 276 D STARTING 1 WK AFTER COMPLETION OF CARCINOGEN TREATM, Route [Inhibitor]: ORAL, Species: RAT, Strain/Sex: WISTAR-LEWIS/FEMALE, Target Tissue: Type of Lesion: PANCREAS: ADENOMA, Dose [Carcinogen]: 10 MG/KG BW 1/WK FOR 15 WK)	tumour outcome (control, treated, inhibition, significance) (Carcinogen: L-AZASERINE, 115-02-6, Dose [Inhibitor]: 1 MMOL/KG DIET DAILY FOR 84 D FOLLOWED BY 0.5 MMOL/KG DIET FOR 276 D STARTING 1 WK AFTER COMPLETION OF CARCINOGEN TREATM, Route [Inhibitor]: ORAL, Species: RAT, Strain/Sex: WISTAR-LEWIS/FEMALE, Target Tissue: Type of Lesion: PANCREAS: CARCINOMA IN SITU, Dose [Carcinogen]: 10 MG/KG BW 1/WK FOR 15 WK)	tumour outcome (control, treated, inhibition, significance) (Carcinogen: L-AZASERINE, 115-02-6, Dose [Inhibitor]: 1 MMOL/KG DIET DAILY FOR 84 D FOLLOWED BY 0.5 MMOL/KG DIET FOR 276 D STARTING 1 WK AFTER COMPLETION OF CARCINOGEN TREATM, Route [Inhibitor]: ORAL, Species: RAT, Strain/Sex: WISTAR-LEWIS/FEMALE, Target Tissue: Type of Lesion: PANCREAS: CARCINOMA, Dose [Carcinogen]: 10 MG/KG BW 1/WK FOR 15 WK)	tumour outcome (control, treated, inhibition, significance) (Carcinogen: L-AZASERINE, 115-02-6, Dose [Inhibitor]: 1 MMOL/KG DIET DAILY FOR 84 D FOLLOWED BY 0.5 MMOL/KG DIET FOR 276 D STARTING 1 WK AFTER COMPLETION OF CARCINOGEN TREATM, Route [Inhibitor]: ORAL, Species: RAT, Strain/Sex: WISTAR-LEWIS/FEMALE, Target Tissue: Type of Lesion: PANCREAS: NEOPLASM, Dose [Carcinogen]: 10 MG/KG BW 1/WK FOR 15 WK)	tumour outcome (control, treated, inhibition, significance) (Carcinogen: L-AZASERINE, 115-02-6, Dose [Inhibitor]: 1 MMOL/KG DIET DAILY FOR 84 D FOLLOWED BY 0.5 MMOL/KG DIET FOR 276 D STARTING 1 WK AFTER COMPLETION OF CARCINOGEN TREATM, Route [Inhibitor]: ORAL, Species: RAT, Strain/Sex: WISTAR-LEWIS/MALE, Target Tissue: Type of Lesion: PANCREAS: ADENOMA, Dose [Carcinogen]: 10 MG/KG BW 1/WK FOR 15 WK)	tumour outcome (control, treated, inhibition, significance) (Carcinogen: L-AZASERINE, 115-02-6, Dose [Inhibitor]: 1 MMOL/KG DIET DAILY FOR 84 D FOLLOWED BY 0.5 MMOL/KG DIET FOR 276 D STARTING 1 WK AFTER COMPLETION OF CARCINOGEN TREATM, Route [Inhibitor]: ORAL, Species: RAT, Strain/Sex: WISTAR-LEWIS/MALE, Target Tissue: Type of Lesion: PANCREAS: CARCINOMA IN SITU, Dose [Carcinogen]: 10 MG/KG BW 1/WK FOR 15 WK)	tumour outcome (control, treated, inhibition, significance) (Carcinogen: L-AZASERINE, 115-02-6, Dose [Inhibitor]: 1 MMOL/KG DIET DAILY FOR 84 D FOLLOWED BY 0.5 MMOL/KG DIET FOR 276 D STARTING 1 WK AFTER COMPLETION OF CARCINOGEN TREATM, Route [Inhibitor]: ORAL, Species: RAT, Strain/Sex: WISTAR-LEWIS/MALE, Target Tissue: Type of Lesion: PANCREAS: CARCINOMA, Dose [Carcinogen]: 10 MG/KG BW 1/WK FOR 15 WK)	tumour outcome (control, treated, inhibition, significance) (Carcinogen: L-AZASERINE, 115-02-6, Dose [Inhibitor]: 1 MMOL/KG DIET DAILY FOR 84 D FOLLOWED BY 0.5 MMOL/KG DIET FOR 276 D STARTING 1 WK AFTER COMPLETION OF CARCINOGEN TREATM, Route [Inhibitor]: ORAL, Species: RAT, Strain/Sex: WISTAR-LEWIS/MALE, Target Tissue: Type of Lesion: PANCREAS: NEOPLASM, Dose [Carcinogen]: 10 MG/KG BW 1/WK FOR 15 WK)	tumour outcome (control, treated, inhibition, significance) (Carcinogen: L-AZASERINE, 115-02-6, Dose [Inhibitor]: 2 MMOL/KG DIET FOR 44 D, 1.5 MMOL FOR 26 D, 1 MMOL FOR 56 D AND 0.75 MMOL FOR 192 D STARTING 1 WK AFTER COMPLETION OF CA, Route [Inhibitor]: ORAL, Species: RAT, Strain/Sex: WISTAR-LEWIS/FEMALE, Target Tissue: Type of Lesion: PANCREAS: ADENOMA, Dose [Carcinogen]: 10 MG/KG BW 1/WK FOR 15 WK)	tumour outcome (control, treated, inhibition, significance) (Carcinogen: L-AZASERINE, 115-02-6, Dose [Inhibitor]: 2 MMOL/KG DIET FOR 44 D, 1.5 MMOL FOR 26 D, 1 MMOL FOR 56 D AND 0.75 MMOL FOR 192 D STARTING 1 WK AFTER COMPLETION OF CA, Route [Inhibitor]: ORAL, Species: RAT, Strain/Sex: WISTAR-LEWIS/FEMALE, Target Tissue: Type of Lesion: PANCREAS: CARCINOMA IN SITU, Dose [Carcinogen]: 10 MG/KG BW 1/WK FOR 15 WK)	tumour outcome (control, treated, inhibition, significance) (Carcinogen: L-AZASERINE, 115-02-6, Dose [Inhibitor]: 2 MMOL/KG DIET FOR 44 D, 1.5 MMOL FOR 26 D, 1 MMOL FOR 56 D AND 0.75 MMOL FOR 192 D STARTING 1 WK AFTER COMPLETION OF CA, Route [Inhibitor]: ORAL, Species: RAT, Strain/Sex: WISTAR-LEWIS/FEMALE, Target Tissue: Type of Lesion: PANCREAS: CARCINOMA, Dose [Carcinogen]: 10 MG/KG BW 1/WK FOR 15 WK)	tumour outcome (control, treated, inhibition, significance) (Carcinogen: L-AZASERINE, 115-02-6, Dose [Inhibitor]: 2 MMOL/KG DIET FOR 44 D, 1.5 MMOL FOR 26 D, 1 MMOL FOR 56 D AND 0.75 MMOL FOR 192 D STARTING 1 WK AFTER COMPLETION OF CA, Route [Inhibitor]: ORAL, Species: RAT, Strain/Sex: WISTAR-LEWIS/FEMALE, Target Tissue: Type of Lesion: PANCREAS: NEOPLASM, Dose [Carcinogen]: 10 MG/KG BW 1/WK FOR 15 WK)	tumour outcome (control, treated, inhibition, significance) (Carcinogen: L-AZASERINE, 115-02-6, Dose [Inhibitor]: 2 MMOL/KG DIET FOR 44 D, 1.5 MMOL FOR 26 D, 1 MMOL FOR 56 D AND 0.75 MMOL FOR 192 D STARTING 1 WK AFTER COMPLETION OF CA, Route [Inhibitor]: ORAL, Species: RAT, Strain/Sex: WISTAR-LEWIS/MALE, Target Tissue: Type of Lesion: PANCREAS: ADENOMA, Dose [Carcinogen]: 10 MG/KG BW 1/WK FOR 15 WK)	tumour outcome (control, treated, inhibition, significance) (Carcinogen: L-AZASERINE, 115-02-6, Dose [Inhibitor]: 2 MMOL/KG DIET FOR 44 D, 1.5 MMOL FOR 26 D, 1 MMOL FOR 56 D AND 0.75 MMOL FOR 192 D STARTING 1 WK AFTER COMPLETION OF CA, Route [Inhibitor]: ORAL, Species: RAT, Strain/Sex: WISTAR-LEWIS/MALE, Target Tissue: Type of Lesion: PANCREAS: CARCINOMA IN SITU, Dose [Carcinogen]: 10 MG/KG BW 1/WK FOR 15 WK)	tumour outcome (control, treated, inhibition, significance) (Carcinogen: L-AZASERINE, 115-02-6, Dose [Inhibitor]: 2 MMOL/KG DIET FOR 44 D, 1.5 MMOL FOR 26 D, 1 MMOL FOR 56 D AND 0.75 MMOL FOR 192 D STARTING 1 WK AFTER COMPLETION OF CA, Route [Inhibitor]: ORAL, Species: RAT, Strain/Sex: WISTAR-LEWIS/MALE, Target Tissue: Type of Lesion: PANCREAS: CARCINOMA, Dose [Carcinogen]: 10 MG/KG BW 1/WK FOR 15 WK)	tumour outcome (control, treated, inhibition, significance) (Carcinogen: L-AZASERINE, 115-02-6, Dose [Inhibitor]: 2 MMOL/KG DIET FOR 44 D, 1.5 MMOL FOR 26 D, 1 MMOL FOR 56 D AND 0.75 MMOL FOR 192 D STARTING 1 WK AFTER COMPLETION OF CA, Route [Inhibitor]: ORAL, Species: RAT, Strain/Sex: WISTAR-LEWIS/MALE, Target Tissue: Type of Lesion: PANCREAS: NEOPLASM, Dose [Carcinogen]: 10 MG/KG BW 1/WK FOR 15 WK)	tumour outcome (control, treated, inhibition, significance) (Carcinogen: 4-(METHYLNITROSAMINO)-1-(3-PYRIDYL)-1-BUTANONE, 64091-91-4, Dose [Inhibitor]: 0, 5 UMOL 1/D FOR 4 D ADMINISTERED PRIOR TO CARCINOGEN DOSE (STUDY DURATION: 116 D), Route [Inhibitor]: GAVAGE, Species: MOUSE, Strain/Sex: STRAIN-A, Target Tissue: Type of Lesion: LUNG: ADENOMA, Dose [Carcinogen]: 10 UMOL IN SALINE ADMINISTERED 2 HR POST LAST AGENT DOSE)	tumour outcome (control, treated, inhibition, significance) (Carcinogen: 4-(N-NITROSOMETHYLAMINO)-1-(3-PYRIDYL)-1-BUTANONE, 64091-91-4, Dose [Inhibitor]: 0, 5 UMOL/D FOR 4 CONSECUTIVE DAYS (STUDY DURATION: 16.5 WK), Route [Inhibitor]: GAVAGE, Species: MOUSE, Strain/Sex: STRAIN-A/FEMALE, Target Tissue: Type of Lesion: LUNG: ADENOMA, Dose [Carcinogen]: 10 UMOL ONCE 2 HR POST LAST AGENT DOSE)
CCC(=O)Oc1ccc(NC(=O)\C=C(C)/C=C/C=C(C)/C=C/C2=C(C)CCCC2(C)C)cc1	50%, 17%, 66%, not significant	8%, 21%, -163%, not calculated	13%, 0%, 100%, not significant	71%, 38%, 46%, p<0.05	25%, 29%, -16%, not significant	29%, 42%, -45%, not significant	46%, 21%, 54%, p 0.06	100%, 92%, 8%, not significant	50%, 29%, 42%, not significant	8%, 4%, 50%, not significant	13%, 4%, 70%, not significant	71%, 38%, 46%, p<0.05	25%, 22%, 12%, not significant	29%, 43%, -48%, not significant	46%, 13%, 72%, p<0.05	100%, 78%, 22%, not significant		
O=C(CCCN=C=S)c1cccnc1																	100%, 96%, 4%, not significant	100%, 96%, 4%, not calculated
